Experiment [1] concerns anti-digoxin monoclonal antibody clone DI-22-FITC conjugate. Briefly: Detection of low molecule-protein bonding on low molecule-fixed slide (fluorescent slide scanner, 488 nm). It counts as binding. The settings on record: light of 488 nm; 162 μg/mL anti-digoxin monoclonal antibody clone DI-22-FITC conjugate; room temperature 1 hour; compound fixed on photophilic atomic group-introduced slide. On the procedure:
(§1) On the photophilic atomic group-introduced slide, 0.2 μL of each of solutions of low-molecular compounds (biotin, rhodamine B, digoxin) in DMSO, which had been prepared in concentrations of 100, 10, 1, 0.1 and 0.01 mM, was spotted. The slide was dried in an incubator at 35° C. for 3 hours and further dried with a vacuum pump for 20 hours. […] The slide was then washed while shaking by immersing in ethanol, DMF, THF, ethanol and deionized water in this order (for 1 hour each). Thus, a slide on which low molecules were fixed was produced.
(§2) Onto the low molecule-fixed slide, a protein solution (162 μg/mL anti-digoxin monoclonal antibody clone DI-22-FITC conjugate, 3.7 μg/mL streptavidin-Alexa Fluor 633 conjugate, 1% (w/v) skimmed milk, 77 mM NaCl, 0.05% (w/v) TWEEN™ 20 (polysorbate 20), 50 mM Tris-HCl, pH 7.5) was added at a rate of […], and then treated at room temperature for 1 hour. The slide was washed while shaking three times with a wash buffer (77 mM NaCl, 0.05% (w/v) TWEEN™ 20 (polysorbate 20), 50 mM Tris-HCl, pH 7.5), rinsed with deionized water, and dehydrated in a dehydration centrifuge (400×g) for 1 minute, The slide was exited with light of 488, 532 and 635 nm, respectively, and the emitted fluorescent light was observed on a fluorescent slide scanner. […]

For experiment [2], the target named is streptavidin-Alexa Fluor 633 conjugate (Streptomyces avidinii, UniProt P22629). Put plainly: Detection of low molecule-protein bonding on low molecule-fixed slide (fluorescent slide scanner, 635 nm). It counts as binding. The settings on record: light of 635 nm; 3.7 μg/mL streptavidin-Alexa Fluor 633 conjugate; room temperature 1 hour; compound fixed on photophilic atomic group-introduced slide. On the procedure:
as §1, §2

streptavidin-Alexa Fluor 633 conjugate, sequence (P22629 25-183): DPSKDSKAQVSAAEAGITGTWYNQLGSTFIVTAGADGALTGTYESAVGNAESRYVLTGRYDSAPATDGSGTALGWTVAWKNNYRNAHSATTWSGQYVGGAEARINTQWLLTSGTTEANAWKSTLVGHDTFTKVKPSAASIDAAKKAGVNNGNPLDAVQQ

In the case of `C[C@H]1O[C@@H](O[C@H]2C(O)C[C@H](OC3CC[C@@]4(C)[C@H](CC[C@@H]5[C@@H]4C[C@@H](O)[C@]4(C)[C@@H](C6=CC(=O)OC6)CC[C@]54O)C3)O[C@@H]2C)C[C@H](O)C1O[C@H]1C[C@H](O)[C@H](O)[C@@H](C)O1` (some centres unmarked) [digoxin], in experiment [1], the “binding of fixed low-molecular compound to protein (fluorescence detected at spotted areas)” value was “bound to the protein”.
On to `O=C(O)CCCC[C@@H]1SC[C@@H]2NC(=O)N[C@@H]21` [biotin], for which, in experiment [2], the “binding of fixed low-molecular compound to protein (fluorescence detected at spotted areas)” value was “bound to the protein”.

For the origin of these results see patent publication US7713706B2, “Method of fixing low-molecular compound to solid-phase support” (RIKEN, priority 2003, dated 2010).
